20 compounds from PubChem BioAssay (NCI) can be followed below.

Holding throughout (experiment): NCI tumour cell line growth inhibition, 48 h
For assay [1], the system named is HCC-2998 colon.
For assay [2], the system named is HCT-116 colon.
In assay [3] the test system is HOP-62 NSCLC.
For assay [4], the system named is IGROV1 ovarian.
Assay [5] has as its system K-562 leukemia.
In assay [6] the test system is MCF7 breast.
In assay [7] the test system is MDA-MB-231 breast.
For assay [8], the system named is MDA-N.
The subject of assay [9] is NCI-H226 lung.
The test system of assay [10] is OVCAR-8 ovarian.
Assay [11] has as its system RXF 393 renal.

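The compound was tested at five concentrations on cells cultured in 96-well plates, with a 48-hour exposure period. TGI: concentration producing complete growth inhibition.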

Consider `Clc1ccc(Cc2nc3ccccc3nc2-c2cccc(Cl)c2)cc1`, for which the TGI in [1] was 3.65 µM; in [2] it was 3.29 µM; in assay [3], 38.1 µM; in assay [4], 3.66 µM; in [5], 5.79 µM; in assay [6], 13 µM. Moreover, the TGI in assay [7] is 10.4 µM; in [8] it was 5.64 µM; in assay [9] it was 38.4 µM; in assay [10], 14.2 µM; in [11], 4.66 µM.
As to `CCn1c(SCc2nnc(Nc3ccccc3)s2)nc2ccccc2c1=O`, the TGI is 31.7 µM in assay [1]; 3.97 µM in assay [2]; 12.5 µM in assay [3]; 15.7 µM in [4]; over 73.2 µM in assay [5]; over 93.6 µM in assay [6]. The TGI was 10.2 µM in [7]; over 52.1 µM in [8]; 7.75 µM in assay [9]; 5.09 µM in [10]; 19.1 µM in assay [11].
As to `CCCC(CC)c1cc(O)c(O)cc1C(CC)CCC` (stereo unspecified), the TGI in [1], in [2], in assay [3], in [4], in assay [5] and in assay [6] was over 10 µM throughout. Besides, the TGI in [7], in assay [8], in [9], in assay [10] and in [11] was over 10 µM throughout.
On to `CC1Cc2c(cc(N)nc2Br)NC1=O` (stereo unspecified), for which the TGI in [1], in assay [2], in assay [3], in assay [4], in assay [5] and in assay [6] was over 100 µM in each case. Besides, the TGI in assay [7], in assay [8], in assay [9], in [10] and in [11] was over 100 µM each time.
With `CCOC(=O)c1c(SCCN2CCCCC2)n(-c2ccccc2)c(=S)n(-c2ccccc2)c1=O`, the TGI in assay [1] is over 53.4 µM; in [2] it was 4.89 µM; in assay [3] it was 40.8 µM; in assay [5], 11 µM; in assay [6], 18.3 µM; in assay [7], 38.4 µM. Further, the TGI was 36.9 µM in [8], 16.9 µM in assay [9], 54.1 µM in [10] and 25.7 µM in [11].
Consider `c1cc2c3c(c1)[C@@H]1O[C@@H]1c1cccc(c1-3)[C@@H]1O[C@H]21`, for which the TGI was 38.5 µM in assay [2]; over 100 µM in assay [3]; over 100 µM in assay [5]; over 100 µM in [6]; 41.8 µM in [7]; 41.9 µM in [8]. Also, the values for the TGI in [9], in assay [10] and in assay [11] were over 100 µM, 46.2 µM and 17.2 µM, respectively.
As for `OCC1c2ccccc2-n2nc(-c3ccccc3)c(O)c21` (stereo unspecified), the TGI in assay [1] is 44.8 µM; in assay [3] it was over 100 µM; in assay [4] it was over 100 µM; in assay [5] it was 53 µM; in assay [6], 36.7 µM; in [7] it was over 100 µM. The TGI was over 100 µM in assay [8], over 100 µM in [9], 37.6 µM in [10] and 31.9 µM in [11].
Regarding `CC(=O)NCC1OC2COC(c3ccccc3)OC2C2N=C(c3ccccc3)OC12` (stereo unspecified), the TGI in [1], in assay [2], in assay [3], in [5], in [6] and in [7] was over 100 µM each time. Besides, the TGI in assay [8], in [9], in assay [10] and in assay [11] was over 100 µM throughout.
Consider `COc1ccc(OC)c(-c2cn3c(n2)sc2ccccc23)c1`, for which the TGI in assay [2], in assay [3], in assay [4], in [5], in assay [6] and in assay [7] was over 100 µM in each case. For the same compound, the TGI in [8], in assay [9], in [10] and in [11] was over 100 µM in each case.
As for `CC(=O)OCC1(CNc2nc(N)ncc2C#N)CC(CCc2ccccc2)C1` (stereo unspecified), the TGI in assay [2], in assay [3], in assay [4], in assay [5], in assay [6] and in assay [7] was over 100 µM throughout. Further, the TGI in [8], in [9], in assay [10] and in [11] was over 100 µM throughout.
Consider `S=c1oc(CCCCCCCCc2nn(CNc3ccc(Cl)cc3)c(=S)o2)nn1CNc1ccc(Cl)cc1`, for which the TGI in assay [1] was over 100 µM; in assay [2] it was over 100 µM; in assay [3], 76.1 µM; in [4], over 100 µM; in [5], over 100 µM; in assay [6], over 100 µM. The TGI in assay [7], in assay [8], in assay [9] and in [11] was over 100 µM in each case.
For the compound `CN1C(=O)C(CCO)(C(C)(C)C)c2ccccc21` (stereo unspecified), the TGI in assay [1], in assay [2], in assay [3], in assay [5], in [6] and in assay [7] was over 100 µM throughout. Moreover, the TGI in [8], in [9], in assay [10] and in assay [11] was over 100 µM throughout.
In the case of `C/C=C\C(CC(=O)NCCc1c[nH]c2ccccc12)CC(=O)OC` (stereo unspecified), the TGI in assay [1], in [2], in assay [3], in assay [4], in assay [5] and in assay [6] was over 100 µM each time. The TGI in assay [7], in assay [8], in assay [10] and in [11] was over 100 µM throughout.
`CCOc1ccccc1N=NC1C(=O)N(C(=O)CC(=O)Nc2ccccc2OC)N=C1C` (stereo unspecified): the TGI is over 100 µM in assay [1]; over 100 µM in assay [2]; 39.4 µM in assay [3]; over 100 µM in assay [4]; over 100 µM in assay [6]; over 100 µM in assay [7]. For the same compound, the TGI in [8] was over 100 µM; in assay [9], over 100 µM; in [10], over 100 µM; in assay [11], 81.5 µM.
On to `CC(=O)Nc1nc(C)c(S(=O)(=O)NC(=O)N2c3ccccc3CCc3ccccc32)s1`, for which the TGI in assay [1], in assay [2], in [3], in [4], in [5] and in assay [6] was over 100 µM each time. Moreover, the TGI in assay [7], in assay [8], in assay [10] and in assay [11] was over 100 µM each time.
Consider `CCOC(=O)NC(OCc1ccccc1)(C(=O)OC)C(F)(F)F` (stereo unspecified), for which the TGI in [1], in assay [2], in [4], in assay [5], in assay [6] and in [7] was over 100 µM throughout. In addition, the TGI in assay [8], in assay [10] and in [11] was over 100 µM each time.
Consider `Cc1cc(C)c(C#N)c(SC(=S)NC(=O)c2ccccc2)n1`, for which the TGI in [1], in assay [2], in assay [3], in assay [4], in assay [5] and in assay [6] was over 100 µM in each case. For the same compound, the TGI in assay [7], in [8], in [9] and in assay [11] was over 100 µM in each case.
For the compound `Oc1ccc(O)c(Sc2nnc(CCCCCCCCc3nnc(Sc4cc(O)ccc4O)o3)o2)c1`, the TGI was over 100 µM in assay [1]; 32.5 µM in assay [2]; over 100 µM in assay [3]; over 100 µM in assay [4]; over 100 µM in assay [5]; 94.1 µM in [6]. The TGI in assay [7] was over 100 µM; in assay [8], 32.9 µM; in assay [9], over 100 µM.
In the case of `Cn1c(=O)[nH]n(-c2ccc3ccccc3c2)c1=O`, the TGI in [1], in assay [2], in [4], in [5], in assay [6] and in assay [7] was over 100 µM throughout. Besides, the TGI in assay [8], in assay [9], in assay [10] and in [11] was over 100 µM in each case.
Turning to `O=C(O)c1cc(Nc2c(O)c3c(c(O)c2Cl)C(=O)C=CC3=O)ccc1O`, the TGI in [1], in assay [2], in [3], in assay [4], in [5] and in [6] was over 10 µM in each case. In addition, the TGI in [7], in assay [8], in assay [9] and in [10] was over 10 µM in each case.
